Assay results reported in ChEMBL document CHEMBL1201862, “PubChem BioAssay data set” (2004).
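Exposure lasted 48 hours, with cells grown in 96-well plates and compounds tested at five concentrations. GI50 = concentration required for 50% inhibition of growth.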 The source made the active and inactive calls. Cut-off read from the data, not from the text of the source: active = GI50 up to about 1.1 µM and inactive = higher.

Assays:
Assay in all cases: NCI tumour cell line growth inhibition, 48 h
[1] = system: UO-31
[2] = system: HL-60
[3] = system: CAKI-1
[4] = system: SF-539
[5] = system: HT-29
[6] = system: UACC-257
[7] = system: K562
[8] = system: SW-620
[9] = system: SK-MEL-28
[10] = system: SK-OV-3
[11] = system: HCT-116
[12] = system: NCI-H460
[13] = system: A498
[14] = system: SNB-75
[15] = system: SF-268
[16] = system: NCI/ADR-RES
[17] = system: PC-3
[18] = system: MCF7
[19] = system: Hs-578T

Measured: GI50

Cc1ccc(S(=O)(=O)N2CCC3(C(/C=C/c4ccccc4)=Nc4ccccc43)C2c2ccccc2)cc1 (stereo not drawn)
inactive: [1] 61.7 µM | [2] > 100 µM | [3] > 100 µM | [4] > 100 µM | [5] > 100 µM | [6] > 100 µM | [7] 21.3 µM | [8] 1.52 µM | [9] > 100 µM | [10] > 100 µM | [11] > 100 µM | [12] > 100 µM | [13] > 100 µM | [14] 87.3 µM | [15] > 100 µM

N#C/C(=C1\OC(=N)C(c2ccc(Cl)cc2)=C1O)c1ccc(Cl)cc1
inactive: [1] 16.2 µM | [2] 13.3 µM | [3] 17.3 µM | [4] 14.5 µM | [5] 18.9 µM | [6] 15 µM | [7] 23.5 µM | [8] 13.2 µM | [9] 26.5 µM | [10] 37.8 µM | [11] 17.3 µM | [12] 17.3 µM | [13] 17.2 µM | [14] 17.5 µM | [15] 36.6 µM

COc1ccc(-c2[nH]c3ccccc3c2CCNS(=O)(=O)c2ccc(C)cc2)cc1
inactive: [1] 4.92 µM | [2] 6.7 µM | [3] > 10 µM | [4] > 10 µM | [5] 6.35 µM | [6] > 8.34 µM | [7] 5.06 µM | [8] > 10 µM | [9] > 10 µM | [10] > 10 µM | [11] > 8.85 µM | [12] 6.17 µM | [13] > 10 µM | [14] > 10 µM | [15] > 10 µM

Cc1nc2ccccc2c(=O)n1-c1ccccc1F
inactive: [1] 74.3 µM | [2] > 100 µM | [3] > 100 µM | [4] > 100 µM | [5] > 100 µM | [6] > 100 µM | [7] > 100 µM | [8] > 100 µM | [9] > 100 µM | [10] > 100 µM | [11] > 100 µM | [12] > 100 µM | [13] > 100 µM | [14] 30.2 µM | [15] > 100 µM

C#CCCCC(=C)C[C@@H]1OC(=O)[C@H](C)[C@@H]1O
inactive: [1] > 100 µM | [2] > 100 µM | [3] > 100 µM | [16] > 100 µM | [17] > 100 µM | [7] > 100 µM | [8] > 100 µM | [9] > 100 µM | [10] > 100 µM | [11] > 100 µM | [18] > 100 µM | [12] > 100 µM | [13] > 100 µM | [14] > 100 µM

Sc1nnc(-c2cccnc2)[nH]1
inactive: [2] > 100 µM | [5] > 100 µM | [6] > 100 µM | [8] > 100 µM | [9] > 100 µM | [10] > 100 µM | [11] > 100 µM | [12] > 100 µM | [13] > 100 µM | [14] > 100 µM | [15] > 100 µM

N#Cc1nc(/C=C/c2cccs2)oc1N
inactive: [1] 10.4 µM | [2] 12.6 µM | [3] 65.3 µM | [19] > 100 µM | [17] 97.1 µM | [5] > 100 µM | [6] > 100 µM | [7] 82.4 µM | [8] > 100 µM | [9] > 100 µM | [10] > 100 µM | [11] > 100 µM | [18] 99.1 µM | [13] > 100 µM | [14] > 100 µM | [15] > 100 µM

Cn1nc(-c2ccccc2)c(N=[N+]=[N-])cc1=O
inactive: [1] > 100 µM | [2] > 100 µM | [3] > 100 µM | [4] > 100 µM | [5] > 100 µM | [6] > 100 µM | [7] > 100 µM | [8] > 100 µM | [9] > 100 µM | [10] 1.59 µM | [11] > 100 µM | [12] > 100 µM | [13] > 100 µM | [15] > 100 µM

CC1CC2C(=O)N(c3ccccc3)C(=O)C2c2[nH]c3ccccc3c21 (stereo not drawn)
inactive: [2] 31.8 µM | [4] 38.8 µM | [5] > 100 µM | [7] 33 µM | [8] > 100 µM | [9] 58.9 µM | [10] 14.2 µM | [12] 63.7 µM | [13] > 100 µM | [14] 28.9 µM | [15] > 100 µM

COC(=O)C1[C@@H](C(=O)OC)C(=O)O[C@H]1c1cc(OC)c(OC)c(OC)c1 (stereo partly drawn)
inactive: [1] > 100 µM | [2] > 100 µM | [3] > 100 µM | [4] > 100 µM | [5] > 100 µM | [6] > 100 µM | [7] > 100 µM | [8] > 100 µM | [9] > 100 µM | [10] > 100 µM | [11] > 100 µM | [12] > 100 µM | [13] 48.5 µM | [14] > 100 µM | [15] > 100 µM

O=C(NCCCCCCCCNC(=O)c1cnc2ccccc2n1)c1cnc2ccccc2n1
inactive: [1] > 100 µM | [2] > 100 µM | [3] > 100 µM | [4] > 100 µM | [5] > 100 µM | [6] > 100 µM | [7] > 100 µM | [8] > 100 µM | [10] > 100 µM | [11] > 100 µM | [12] > 100 µM | [13] > 100 µM | [14] 49.9 µM | [15] > 100 µM

CC(=O)Nc1ccc(S(=O)(=O)NN(C)S(=O)(=O)c2ccc(C)cc2)cc1
inactive: [1] > 100 µM | [2] > 100 µM | [3] > 100 µM | [4] > 100 µM | [5] > 100 µM | [6] > 100 µM | [7] > 100 µM | [8] > 100 µM | [9] > 100 µM | [10] > 100 µM | [11] > 100 µM | [12] > 100 µM | [13] > 100 µM | [15] > 100 µM

Oc1ccc(-c2csc(N/N=C3\NC/C(=C/c4ccc5c(c4)OCO5)S3)n2)cc1O
inactive: [1] 11.2 µM | [2] > 10 µM | [3] 32.4 µM | [16] 42 µM | [17] 26.4 µM | [4] 3.18 µM | [5] 38.5 µM | [6] 14.6 µM | [8] 35.4 µM | [9] 11.9 µM | [10] > 100 µM | [11] 29.3 µM | [18] 6.43 µM | [12] 31 µM | [14] 1.73 µM

Cc1nc(Nc2ccc(Cl)cc2)sc1C(=O)NNC(=S)NN
inactive: [1] 15.8 µM | [2] 21.4 µM | [3] 24.7 µM | [4] 17.5 µM | [6] 13.2 µM | [7] 27.3 µM | [8] 19.5 µM | [9] 19.3 µM | [10] 27.4 µM | [11] 17 µM | [12] 19.7 µM | [13] 15.3 µM | [14] 32.7 µM | [15] 21.1 µM
